# Results as given in US20250195533A1, “COMBINATION THERAPIES FOR THE TREATMENT OF CANCER” (Erasca, Inc., priority 2020, published 2025).
# Legend:
# NCI-H2122 cells = test: CellTiter-Glo cellular proliferation/viability assay, fixed concentration of KRAS G12C inhibitor; type: cell-based; conditions: Homo sapiens, NCI-H2122, 120 h, compound of Formula I alone, 5 days, read-out: 2D CTG IC50
# NCI-H358 cells = test: as above; type: cell-based; conditions: Homo sapiens, 120 h, compound of Formula I alone, 5 days, read-out: 2D CTG IC50
# Description: The combination was studied by a cell viability assay. NCI-H358 cells were split onto a 96-well plate.
compound,measurement,setting,value
COCOC[C@H]1C[C@H]2COc3c(Sc4cnc(N5CCC6(CC5)CO[C@@H](C)[C@H]6N)c(CO)n4)ccnc3N2C1 [The compound of Formula I],IC50,NCI-H2122 cells,2.79 µM
same,IC50,NCI-H358 cells,0.168 µM
